Source: patent publication EP4745135A1 (Gluetacs Therapeutics (Shanghai) Co., Ltd., priority 2023, dated 2025)

Key:
[1] = tested on: Human colon cancer cell line: SW620; assay: Tumor cell proliferation inhibition (CellTiter-Meiluncell luminescent cell viability assay); conditions: SW-620, 96 h; for inhibition at 0.01 µM: read-out: Inhibition Rate at 10 nM (%); for inhibition at 0.5 µM: read-out: Inhibition Rate at 500 nM (%)
Procedure: (§1) The tumor cells used herein were cultured in a cell culture medium listed in table 2 at 37°C in an incubator with 5% CO2. Prior to experimentation, all cell lines used were correctly identified by STR profiling, and tested negative for mycoplasma contamination using a mycoplasma detection kit through routine screenings.
(§2) The IC50 values of the compounds of the present disclosure (including the compounds in Table 1 and Examples) were determined using the CellTiter-Meiluncell Luminescent Cell Viability Assay Kit from Dalian Meilun Biotech Co., Ltd. The detailed procedure is as follows: Tumor cells were seeded in 96-well cell culture plates at the densities specified in Table 3. On the following day, the test compounds of the present disclosure were subjected to serial dilution. The dilution can be performed according to one of the following two methods: • (1) The first dilution method: The test compounds of the present disclosure (including the compounds in Table 1 and Examples) were subjected to 5-fold serial dilutions starting from a highest concentration of 2000 µM, resulting in a total of 9 concentrations from high to low (2000, 400, 80, 16, 3.2, 0.64, 0.128, 0.0256, 0.00512 µM). Subsequently, 0.5 µL of the test compound dilution was transferred into the 96-well plate containing the cells, with each well containing 100 µL of cell culture medium. […] Into the 96-well plate, the diluted test compounds and corresponding detection reagents were added, resulting in final test compound concentrations of 500 nM and 10 nM, respectively. The experimental procedure is described below using the diluted 2 µM test compound as an example.
(§3) 0.5 µL of the aforementioned diluted compound of the present disclosure (including the compounds in Table 1 and Examples) was added to the seeded cells in 100 µL of medium, yielding a final test compound concentration of 10 nM. After the cells were treated with the compounds of the present disclosure for a specified period, the cell viability assay reagent was added to the culture medium according to the kit's instructions to determine cell viability. […] All controls were treated using the same procedure as the compounds of the present disclosure. The growth inhibition curves for the compounds of the present disclosure were plotted using Prism GraphPad software, and the IC50 values were calculated therefrom.

[2] = tested on: Human malignant melanoma cell line: A375; assay: as above; conditions: A-375, 96 h; for inhibition at 0.01 µM: read-out: Inhibition Rate at 10 nM (%); for inhibition at 0.5 µM: read-out: Inhibition Rate at 500 nM (%)
Procedure: as §1, §2, §3

[3] = target: T1, human Cereblon WT GST-tagged protein (Homo sapiens, UniProt Q96SW2); assay: CRBN-binding affinity, HTRF (CEREBLON BINDING kit); conditions: for inhibition at 0.5 µM: read-out: Inhibition Rate at 0.5 µM (%); for inhibition at 2 µM: read-out: Inhibition Rate at 2 µM (%)
T1 construct: purchased CISBIO 64BDCRBNPEH

[4] = tested on: Human monocytic leukemia cell line: THP-1; assay: Tumor cell proliferation inhibition (CellTiter-Meiluncell luminescent cell viability assay); conditions: THP-1, 96 h; for inhibition at 0.01 µM: read-out: Inhibition Rate at 10 nM (%); for inhibition at 0.5 µM: read-out: Inhibition Rate at 500 nM (%)
Procedure: as §1, §2, §3

[5] = target: T2, WEE1 (Homo sapiens, UniProt P30291+Q96SW2); assay: Western blot, degradation of substrate protein in hPBMCs; type: cell-based; conditions: 24 hours treatment, compounds at 50 nM and 500 nM (concentration behind the class not stated)
T2 construct: effects of the compounds of the present disclosure on the expression of target proteins in cells; endogenous in cells; host or cells: human PBMCs (Milecell Biotechnologies)

[6] = target: T3, IKZF2 (Homo sapiens, UniProt Q96SW2+Q9UKS7); assay: as above; type: cell-based; conditions: 24 hours treatment, compounds at 50 nM and 500 nM (concentration behind the class not stated)
T3 construct: effects of the compounds of the present disclosure on the expression of target proteins in cells; endogenous in cells; host or cells: human PBMCs (Milecell Biotechnologies)

[7] = target: T4, CK1α (Homo sapiens, UniProt P48729+Q96SW2); assay: as above; type: cell-based; conditions: 24 hours treatment, compounds at 50 nM and 500 nM (concentration behind the class not stated)
T4 construct: effects of the compounds of the present disclosure on the expression of target proteins in cells; endogenous in cells; host or cells: human PBMCs (Milecell Biotechnologies)

[8] = target: T5, IKZF3 (Homo sapiens, UniProt Q96SW2+Q9UKT9); assay: as above; type: cell-based; conditions: 24 hours treatment, compounds at 50 nM and 500 nM (concentration behind the class not stated)
T5 construct: effects of the compounds of the present disclosure on the expression of target proteins in cells; endogenous in cells; host or cells: human PBMCs (Milecell Biotechnologies)

[9] = target: T6, IKZF1 (Homo sapiens, UniProt Q13422+Q96SW2); assay: as above; type: cell-based; conditions: 24 hours treatment, compounds at 50 nM and 500 nM (concentration behind the class not stated)
T6 construct: effects of the compounds of the present disclosure on the expression of target proteins in cells; endogenous in cells; host or cells: human PBMCs (Milecell Biotechnologies)

[10] = tested on: GSPT1; assay: as above; type: cell-based, Human; conditions: 24 hours treatment, compounds at 50 nM and 500 nM (concentration behind the class not stated)
[11] = tested on: Human breast cancer cell (MCF-7); assay: Tumor cell proliferation inhibition (CellTiter-Meiluncell luminescent cell viability assay); conditions: MCF7, 96 h

T3 sequence (Q9UKS7 whole entry): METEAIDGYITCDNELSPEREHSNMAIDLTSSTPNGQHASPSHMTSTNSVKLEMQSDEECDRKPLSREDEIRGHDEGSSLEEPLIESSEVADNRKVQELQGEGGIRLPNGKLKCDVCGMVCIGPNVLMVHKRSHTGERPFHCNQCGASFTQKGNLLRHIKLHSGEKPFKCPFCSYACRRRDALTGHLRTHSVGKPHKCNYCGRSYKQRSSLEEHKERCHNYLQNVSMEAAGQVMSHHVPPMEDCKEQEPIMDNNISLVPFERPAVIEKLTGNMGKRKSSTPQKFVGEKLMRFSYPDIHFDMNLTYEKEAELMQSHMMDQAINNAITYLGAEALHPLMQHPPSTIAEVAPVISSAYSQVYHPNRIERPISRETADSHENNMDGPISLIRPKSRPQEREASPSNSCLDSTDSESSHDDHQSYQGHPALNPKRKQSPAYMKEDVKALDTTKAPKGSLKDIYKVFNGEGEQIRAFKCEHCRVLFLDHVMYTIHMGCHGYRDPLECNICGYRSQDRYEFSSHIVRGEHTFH
T3 sequence (Q96SW2 whole entry): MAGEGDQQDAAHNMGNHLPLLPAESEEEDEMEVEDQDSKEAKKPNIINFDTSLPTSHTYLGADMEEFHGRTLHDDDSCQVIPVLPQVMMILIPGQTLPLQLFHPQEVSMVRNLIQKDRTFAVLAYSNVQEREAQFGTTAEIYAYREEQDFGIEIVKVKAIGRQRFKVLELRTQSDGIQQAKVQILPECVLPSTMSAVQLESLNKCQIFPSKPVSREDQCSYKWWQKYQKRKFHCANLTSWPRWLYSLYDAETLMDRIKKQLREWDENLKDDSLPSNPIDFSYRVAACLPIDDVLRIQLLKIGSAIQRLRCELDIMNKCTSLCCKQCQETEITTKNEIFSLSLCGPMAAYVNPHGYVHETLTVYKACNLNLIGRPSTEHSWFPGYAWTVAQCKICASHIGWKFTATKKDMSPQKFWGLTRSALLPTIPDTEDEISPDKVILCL
T3 sequence (Q16531 whole entry partner): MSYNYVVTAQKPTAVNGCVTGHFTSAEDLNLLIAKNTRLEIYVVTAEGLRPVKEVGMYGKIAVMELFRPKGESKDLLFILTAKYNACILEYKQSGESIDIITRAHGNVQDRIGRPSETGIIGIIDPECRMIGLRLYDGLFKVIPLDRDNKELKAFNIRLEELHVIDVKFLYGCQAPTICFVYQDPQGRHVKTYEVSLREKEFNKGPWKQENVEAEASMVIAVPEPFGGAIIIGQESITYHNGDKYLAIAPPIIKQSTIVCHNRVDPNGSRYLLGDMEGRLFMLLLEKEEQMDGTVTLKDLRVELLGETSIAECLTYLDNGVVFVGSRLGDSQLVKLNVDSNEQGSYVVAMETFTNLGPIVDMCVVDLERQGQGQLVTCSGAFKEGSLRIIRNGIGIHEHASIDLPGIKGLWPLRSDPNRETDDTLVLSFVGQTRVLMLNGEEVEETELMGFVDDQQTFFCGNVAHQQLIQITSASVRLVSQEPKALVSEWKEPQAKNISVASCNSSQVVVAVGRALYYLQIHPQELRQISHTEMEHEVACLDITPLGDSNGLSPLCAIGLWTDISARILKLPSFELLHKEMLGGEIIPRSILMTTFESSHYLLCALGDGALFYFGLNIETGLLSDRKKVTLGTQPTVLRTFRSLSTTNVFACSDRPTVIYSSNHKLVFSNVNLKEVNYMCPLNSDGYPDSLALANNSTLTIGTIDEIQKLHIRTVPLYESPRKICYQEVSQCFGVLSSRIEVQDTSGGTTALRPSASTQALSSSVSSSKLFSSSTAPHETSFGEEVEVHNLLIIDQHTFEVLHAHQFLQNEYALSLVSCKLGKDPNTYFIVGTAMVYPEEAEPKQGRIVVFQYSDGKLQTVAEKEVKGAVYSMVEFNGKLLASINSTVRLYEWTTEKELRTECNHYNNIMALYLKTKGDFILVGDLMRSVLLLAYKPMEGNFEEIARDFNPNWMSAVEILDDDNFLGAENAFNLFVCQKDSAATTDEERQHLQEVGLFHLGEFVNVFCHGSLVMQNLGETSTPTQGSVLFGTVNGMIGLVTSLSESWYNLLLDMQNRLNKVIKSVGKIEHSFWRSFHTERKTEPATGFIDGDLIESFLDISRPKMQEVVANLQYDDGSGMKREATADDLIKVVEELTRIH
T6 sequence (Q13422 whole entry): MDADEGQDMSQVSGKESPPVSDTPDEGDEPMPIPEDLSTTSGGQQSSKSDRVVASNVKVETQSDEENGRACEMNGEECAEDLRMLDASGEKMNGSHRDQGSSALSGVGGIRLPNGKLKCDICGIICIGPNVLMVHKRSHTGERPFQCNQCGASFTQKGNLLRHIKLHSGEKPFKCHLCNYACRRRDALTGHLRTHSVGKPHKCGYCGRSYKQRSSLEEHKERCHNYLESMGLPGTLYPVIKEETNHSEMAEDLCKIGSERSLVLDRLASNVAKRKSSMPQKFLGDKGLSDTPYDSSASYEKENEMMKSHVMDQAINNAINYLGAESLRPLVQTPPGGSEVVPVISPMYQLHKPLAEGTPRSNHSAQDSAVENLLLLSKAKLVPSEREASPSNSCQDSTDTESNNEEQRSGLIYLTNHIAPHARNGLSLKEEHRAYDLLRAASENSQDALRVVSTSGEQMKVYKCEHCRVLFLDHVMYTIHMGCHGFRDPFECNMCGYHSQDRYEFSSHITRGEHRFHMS
T6 sequence (Q96SW2 whole entry): as the sequence (Q96SW2 whole entry) above
T6 sequence (Q16531 whole entry partner): as the sequence (Q16531 whole entry partner) above
T2 sequence (P30291 whole entry): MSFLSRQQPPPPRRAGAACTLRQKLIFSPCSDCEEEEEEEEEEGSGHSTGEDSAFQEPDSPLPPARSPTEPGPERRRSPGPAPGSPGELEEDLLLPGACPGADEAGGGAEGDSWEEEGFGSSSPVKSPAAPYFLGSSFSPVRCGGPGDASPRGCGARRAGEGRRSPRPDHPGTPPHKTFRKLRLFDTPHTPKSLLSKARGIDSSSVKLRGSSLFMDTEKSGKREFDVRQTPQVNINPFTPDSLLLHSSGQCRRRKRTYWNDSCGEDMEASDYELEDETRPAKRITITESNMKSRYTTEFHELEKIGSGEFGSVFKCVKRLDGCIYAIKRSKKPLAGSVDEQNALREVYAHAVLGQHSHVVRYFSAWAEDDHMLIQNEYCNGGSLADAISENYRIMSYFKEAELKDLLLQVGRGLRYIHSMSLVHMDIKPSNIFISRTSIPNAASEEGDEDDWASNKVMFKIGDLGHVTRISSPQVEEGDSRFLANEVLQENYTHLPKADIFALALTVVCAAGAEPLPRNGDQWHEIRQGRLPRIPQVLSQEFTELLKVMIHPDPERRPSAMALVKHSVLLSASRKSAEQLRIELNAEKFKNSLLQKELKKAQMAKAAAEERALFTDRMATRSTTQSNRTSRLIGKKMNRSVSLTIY
T2 sequence (Q96SW2 whole entry): as the sequence (Q96SW2 whole entry) above
T2 sequence (Q16531 whole entry partner): as the sequence (Q16531 whole entry partner) above
T5 sequence (Q9UKT9 whole entry): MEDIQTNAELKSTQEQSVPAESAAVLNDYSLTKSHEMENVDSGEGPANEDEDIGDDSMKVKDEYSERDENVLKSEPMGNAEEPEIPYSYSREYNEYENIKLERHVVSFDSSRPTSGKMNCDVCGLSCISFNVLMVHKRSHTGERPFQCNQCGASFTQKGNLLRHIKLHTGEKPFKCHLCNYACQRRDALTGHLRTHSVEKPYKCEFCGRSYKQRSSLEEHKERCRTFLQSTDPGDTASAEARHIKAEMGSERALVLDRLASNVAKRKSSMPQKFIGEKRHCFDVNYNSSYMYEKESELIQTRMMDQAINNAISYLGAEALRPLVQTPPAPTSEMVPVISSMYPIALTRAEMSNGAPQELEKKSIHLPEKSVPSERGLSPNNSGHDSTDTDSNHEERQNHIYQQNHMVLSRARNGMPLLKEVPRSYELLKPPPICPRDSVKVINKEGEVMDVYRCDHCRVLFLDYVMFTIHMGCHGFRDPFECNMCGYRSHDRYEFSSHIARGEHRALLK
T5 sequence (Q96SW2 whole entry): as the sequence (Q96SW2 whole entry) above
T5 sequence (Q16531 whole entry partner): as the sequence (Q16531 whole entry partner) above
T1 sequence (Q96SW2 whole entry): as the sequence (Q96SW2 whole entry) above
T4 sequence (P48729 whole entry): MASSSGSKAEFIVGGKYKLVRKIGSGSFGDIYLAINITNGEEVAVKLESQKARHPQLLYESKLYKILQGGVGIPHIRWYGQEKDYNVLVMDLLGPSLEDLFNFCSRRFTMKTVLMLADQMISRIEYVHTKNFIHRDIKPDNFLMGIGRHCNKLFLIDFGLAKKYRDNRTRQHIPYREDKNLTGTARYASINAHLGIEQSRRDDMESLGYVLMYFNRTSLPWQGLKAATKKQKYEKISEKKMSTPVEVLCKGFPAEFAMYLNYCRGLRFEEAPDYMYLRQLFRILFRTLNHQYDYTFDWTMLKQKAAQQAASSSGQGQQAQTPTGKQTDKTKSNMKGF
T4 sequence (Q96SW2 whole entry): as the sequence (Q96SW2 whole entry) above
T4 sequence (Q16531 whole entry partner): as the sequence (Q16531 whole entry partner) above

inhibition at 0.5 µM [3] | inhibition at 2 µM [3] | Structure (SMILES) | inhibition at 0.01 µM [1] | inhibition at 0.5 µM [1] | inhibition at 0.01 µM [2] | inhibition at 0.5 µM [2] | inhibition at 0.01 µM [4] | inhibition at 0.5 µM [4] | Wee1 substrate protein remaining % [5] | IKZF2 substrate protein remaining % [6] | CK1α substrate protein remaining % [7] | IKZF3 substrate protein remaining % [8] | IKZF 1 substrate protein remaining % [9] | GSPT1 substrate protein remaining % [10] | inhibition at 0.01 µM ([11]; read-out: Inhibition Rate at 10 nM (%)) | inhibition at 0.5 µM ([11]; read-out: Inhibition Rate at 500 nM (%))
60 to 80% | 80 to 100% | Cc1cc2c(C3=CCN(Cc4ccc5c(c4)CN(C4CCC(=O)NC4=O)C5=S)CC3)ncnc2s1 (centres unmarked) [GT-09316, 3-(5-((4-(6-methylthieno[2,3-d]pyrimidin-4-yl)-3,6-dihydropyridin-1(2H)-yl)methyl)-1-thioxoisoindolin-2-yl)piperidine-2,6-dione] | 10 to 20% | 80 to 100% | 30 to 40% | 80 to 100% | 5 to 10% | 80 to 100% | B (80%< substrate protein remaining %≤ 100%) | B (80%< substrate protein remaining %≤ 100%) | B (80%< substrate protein remaining %≤ 100%) | A (0% ≤ substrate protein remaining % ≤ 80%) | A (0% ≤ substrate protein remaining % ≤ 80%) | A (0% ≤ substrate protein remaining % ≤ 80%) |  | 
53 to 60% | 80 to 100% | Cc1sc2ncnc(C3=CCN(Cc4ccc5c(c4)CN(C4CCC(=O)NC4=O)C5=S)CC3)c2c1C (centres unmarked) [GT-09318, 3-(5-((4-(5,6-dimethylthieno[2,3-d]pyrimidin-4-yl)-3,6-dihydropyridin-1(2H)-yl)methyl)-1-thioxoisoindolin-2-yl)piperidine-2,6-dione] | 10 to 20% | 80 to 100% | 20 to 30% | 60 to 70% | 10 to 20% | 80 to 100% | A (0% ≤ substrate protein remaining % ≤ 80%) | B (80%< substrate protein remaining %≤ 100%) | B (80%< substrate protein remaining %≤ 100%) | A (0% ≤ substrate protein remaining % ≤ 80%) | B (80%< substrate protein remaining %≤ 100%) | A (0% ≤ substrate protein remaining % ≤ 80%) |  | 
60 to 80% | 80 to 100% | Cc1nc(C2=CCN(Cc3ccc4c(c3)CN(C3CCC(=O)NC3=O)C4=S)CC2)c2ccsc2n1 (centres unmarked) [GT-09322, 3-(5-((4-(2-methylthieno[2,3-d]pyrimidin-4-yl)-3,6-dihydropyridin-1(2H)-yl)methyl)-1-thioxoisoindolin-2-yl)piperidine-2,6-dione] | 5 to 10% | 80 to 100% | 10 to 20% | 80 to 100% | 10 to 20% | 80 to 100% | A (0% ≤ substrate protein remaining % ≤ 80%) | B (80%< substrate protein remaining %≤ 100%) | B (80%< substrate protein remaining %≤ 100%) | B (80%< substrate protein remaining %≤ 100%) | A (0% ≤ substrate protein remaining % ≤ 80%) | A (0% ≤ substrate protein remaining % ≤ 80%) |  | 
60 to 80% | 80 to 100% | O=C1CCC(N2Cc3cc(CN4CC=C(c5ncnc6sc7c(c56)CCCC7)CC4)ccc3C2=S)C(=O)N1 (centres unmarked) [GT-09324, 3-(5-((4-(5,6,7,8-tetrahydrobenzo[4,5]thieno[2,3-d]pyrimidin-4-yl)-3,6-dihydropyridin-1(2H)-yl)methyl)-1-thioxoisoindolin-2-yl)piperidine-2,6-dione] | 20 to 30% | 80 to 100% | 30 to 40% | 80 to 100% | 10 to 20% | 80 to 100% | A (0% ≤ substrate protein remaining % ≤ 80%) | B (80%< substrate protein remaining %≤ 100%) | B (80%< substrate protein remaining %≤ 100%) | B (80%< substrate protein remaining %≤ 100%) | B (80%< substrate protein remaining %≤ 100%) | A (0% ≤ substrate protein remaining % ≤ 80%) |  | 
60 to 80% | 80 to 100% | O=C1CCC(N2Cc3cc(CN4CC=C(c5ncnc6sc7c(c56)CCC7)CC4)ccc3C2=S)C(=O)N1 (centres unmarked) [GT-09325, 3-(5-((4-(6,7-dihydro-5H-cyclopenta[4,5]thieno[2,3-d]pyrimidin-4-yl)-3,6-dihydropyridin-1(2H)-yl)methyl)-1-thioxoisoindolin-2-yl)piperidine-2,6-dione] | -15 to -5% | 80 to 100% | 20 to 30% | 80 to 100% | 5 to 10% | 80 to 100% | A (0% ≤ substrate protein remaining % ≤ 80%) | B (80%< substrate protein remaining %≤ 100%) | B (80%< substrate protein remaining %≤ 100%) | B (80%< substrate protein remaining %≤ 100%) | B (80%< substrate protein remaining %≤ 100%) | A (0% ≤ substrate protein remaining % ≤ 80%) |  | 
80 to 100% | 80 to 100% | O=C1CCC(N2Cc3cc(CN4CCN(c5nc(Cl)nc6ccsc56)CC4)ccc3C2=S)C(=O)N1 (centres unmarked) [GT-09331, 3-(5-((4-(2-chlorothieno[3,2-d]pyrimidin-4-yl)piperazin-1-yl)methyl)-1-thioxoisoindolin-2-yl)piperidine-2,6-dione] |  |  | 30 to 40% | 50 to 60% |  |  | B (80%< substrate protein remaining %≤ 100%) | B (80%< substrate protein remaining %≤ 100%) | B (80%< substrate protein remaining %≤ 100%) | B (80%< substrate protein remaining %≤ 100%) | B (80%< substrate protein remaining %≤ 100%) | A (0% ≤ substrate protein remaining % ≤ 80%) | 20 to 30% | 40 to 50%

Structure (SMILES) | inhibition at 0.5 µM [3] | inhibition at 2 µM [3] | inhibition at 0.01 µM [1] | inhibition at 0.5 µM [1] | inhibition at 0.01 µM [2] | inhibition at 0.5 µM [2] | inhibition at 0.01 µM [4] | inhibition at 0.5 µM [4] | Wee1 substrate protein remaining % [5] | IKZF2 substrate protein remaining % [6] | CK1α substrate protein remaining % [7] | IKZF3 substrate protein remaining % [8] | IKZF 1 substrate protein remaining % [9] | GSPT1 substrate protein remaining % [10] | inhibition at 0.01 µM ([11]; read-out: Inhibition Rate at 10 nM (%)) | inhibition at 0.5 µM ([11]; read-out: Inhibition Rate at 500 nM (%))
O=C1CCC(N2Cc3cc(CN4CC=C(c5ncnc6sccc56)CC4)ccc3C2=S)C(=O)N1 (centres unmarked) [GT-09314, 3-(5-((4-(thieno[2,3-d]pyrimidin-4-yl)-3,6-dihydropyridin-1(2H)-yl)methyl)-1-thioxoisoindolin-2-yl)piperidine-2,6-dione] | 80 to 100% | 80 to 100% | 10 to 20% | 80 to 100% | 5 to 10% | 40 to 50% | 5 to 10% | 80 to 100% | A (0% ≤ substrate protein remaining % ≤ 80%) | B (80%< substrate protein remaining %≤ 100%) | B (80%< substrate protein remaining %≤ 100%) | A (0% ≤ substrate protein remaining % ≤ 80%) | A (0% ≤ substrate protein remaining % ≤ 80%) | A (0% ≤ substrate protein remaining % ≤ 80%) |  | 
O=C1CCC(N2Cc3cc(CN4CC=C(c5ncc6ccsc6n5)CC4)ccc3C2=S)C(=O)N1 (centres unmarked) [GT-09327, 3-(5-((4-(thieno[2,3-d]pyrimidin-2-yl)-3,6-dihydropyridin-1(2H)-yl)methyl)-1-thioxoisoindolin-2-yl)piperidine-2,6-dione] | 60 to 80% | 80 to 100% | 30 to 40% | 80 to 100% | 20 to 30% | 80 to 100% | 20 to 30% | 80 to 100% | A (0% ≤ substrate protein remaining % ≤ 80%) | A (0% ≤ substrate protein remaining % ≤ 80%) | B (80%< substrate protein remaining %≤ 100%) | B (80%< substrate protein remaining %≤ 100%) | B (80%< substrate protein remaining %≤ 100%) | A (0% ≤ substrate protein remaining % ≤ 80%) |  | 
